Several values for one entry are separate records, joined by “and”; a condition that tells them apart may be missing. Equal entries are not always repeated. Inconclusive results and toxic doses are left out. No stated cut-off is given here; in the data, active means T/C of 150% or more; inactive means T/C below 125%.
Tested on: L1210 leukemia ip in BDF1 mice, survival T/C
Experiment: NCI In Vivo Anticancer Drug Screen. Data for tumor model L1210 Leukemia (intraperitoneal) in B6D2F1 (BDF1) mice
Conditions: endpoint: mean survival time, higher = longer survival
Summary of the method: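 Ratio derived from survival: compound-dosed mice over vehicle-dosed mice, all bearing a transplantable tumor.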

[1] = dose: 25.0 mg/kg/injection, schedule: Q01DX009 (ip), vehicle: saline with Tween-80
[2] = dose: 50.0 mg/kg/injection, schedule: Q01DX009 (ip), vehicle: saline with Tween-80
[3] = dose: 100.0 mg/kg/injection, schedule: Q01DX009 (ip), vehicle: saline with Tween-80
[4] = dose: 100.0 mg/kg/injection, schedule: Q04DX003 (ip), vehicle: saline with Tween-80
[5] = dose: 200.0 mg/kg/injection, schedule: Q04DX003 (ip), vehicle: Klucel (hydroxypropylcellulose) (HPC)
[6] = dose: 400.0 mg/kg/injection, schedule: Q04DX003 (ip), vehicle: Klucel (hydroxypropylcellulose) (HPC)
[7] = dose: 100.0 mg/kg/injection, schedule: Q01DX001 (ip), vehicle: saline
[8] = dose: 200.0 mg/kg/injection, schedule: Q01DX001 (ip), vehicle: saline
[9] = dose: 200.0 mg/kg/injection, schedule: Q01DX009 (ip), vehicle: saline with Tween-80
[10] = dose: 100.0 mg/kg/injection, schedule: Q04DX003 (ip), vehicle: saline
[11] = dose: 200.0 mg/kg/injection, schedule: Q04DX003 (ip), vehicle: saline
[12] = dose: 400.0 mg/kg/injection, schedule: Q04DX003 (ip), vehicle: saline

Measured: T/C

O=C(CSCC(=O)c1ccccc1)c1ccccc1
inactive: dose: 12.5 mg/kg/injection, schedule: Q01DX009 (ip), vehicle: Klucel (hydroxypropylcellulose) (HPC) 93 % of control | dose: 25.0 mg/kg/injection, schedule: Q01DX009 (ip), vehicle: Klucel (hydroxypropylcellulose) (HPC) 104 % of control | dose: 50.0 mg/kg/injection, schedule: Q01DX009 (ip), vehicle: Klucel (hydroxypropylcellulose) (HPC) 112 % of control | dose: 80.0 mg/kg/injection, schedule: Q01DX009 (ip), vehicle: Klucel (hydroxypropylcellulose) (HPC) 103 % of control | dose: 115.0 mg/kg/injection, schedule: Q01DX009 (ip), vehicle: Klucel (hydroxypropylcellulose) (HPC) 100 % of control | dose: 170.0 mg/kg/injection, schedule: Q01DX009 (ip), vehicle: Klucel (hydroxypropylcellulose) (HPC) 100 % of control

C=CC[P+](C)(c1ccccc1)c1ccccc1
inactive: dose: 3.13 mg/kg/injection, schedule: Q01DX009 (ip), vehicle: saline 106 % of control

CC12CCC(O)CC1CCC1C2CCC2(C)C1CC1NC12 (stereo not given)
inactive: dose: 100.0 mg/kg/injection, schedule: Q01DX001 (sc), vehicle: steriod suspending solution 92 % of control | dose: 200.0 mg/kg/injection, schedule: Q01DX001 (sc), vehicle: steriod suspending solution 94 % of control

Oc1cccc[c]1[Hg][Cl]
inactive: dose: 1.0 mg/kg/injection, schedule: Q01DX009 (ip), vehicle: Klucel (hydroxypropylcellulose) (HPC) 98 % of control | dose: 1.0 mg/kg/injection, schedule: Q04DX003 (ip), vehicle: saline 98 % of control | dose: 3.0 mg/kg/injection, schedule: Q01DX009 (ip), vehicle: Klucel (hydroxypropylcellulose) (HPC) 89 % of control | dose: 3.0 mg/kg/injection, schedule: Q04DX003 (ip), vehicle: saline 94 % of control | dose: 6.0 mg/kg/injection, schedule: Q01DX009 (ip), vehicle: Klucel (hydroxypropylcellulose) (HPC) 94 % of control and 91 % of control

COC(=O)c1ccc(CBr)cc1
inactive: [1] 97 % of control | [2] 90 % of control | dose: 50.0 mg/kg/injection, schedule: Q04DX003 (ip), vehicle: saline with Tween-80 97 % of control | [3] 98 % of control | [4] 96 % of control

NNC12CCC(c3ccccc31)c1ccccc12
inactive: dose: 100.0 mg/kg/injection, schedule: Q04DX003 (ip), vehicle: saline sonified 96 % of control | dose: 200.0 mg/kg/injection, schedule: Q04DX003 (ip), vehicle: saline sonified 101 % of control

O=C(COc1ccc(Cl)cc1C(=O)O)Nc1cccc(NC(=O)Nc2cc(S(=O)(=O)F)ccc2Cl)c1
inactive: dose: 100.0 mg/kg/injection, schedule: Q01DX001 (ip), vehicle: Klucel (hydroxypropylcellulose) (HPC) 94 % of control | dose: 200.0 mg/kg/injection, schedule: Q01DX001 (ip), vehicle: Klucel (hydroxypropylcellulose) (HPC) 88 % of control | dose: 400.0 mg/kg/injection, schedule: Q01DX001 (ip), vehicle: Klucel (hydroxypropylcellulose) (HPC) 91 % of control

O=C(O)CCCCC(=O)c1cc(O)ccc1O
inactive: dose: 100.0 mg/kg/injection, schedule: Q04DX003 (ip), vehicle: Klucel (hydroxypropylcellulose) (HPC) 102 % of control | [5] 104 % of control | [6] 102 % of control

O=S1(=O)C(Cl)(Cl)SC(Cl)(Cl)S(=O)(=O)C1(Cl)Cl
inactive: dose: 12.5 mg/kg/injection, schedule: Q01DX009 (ip), vehicle: saline 101 % of control | dose: 25.0 mg/kg/injection, schedule: Q01DX009 (ip), vehicle: saline 93 % of control | dose: 50.0 mg/kg/injection, schedule: Q01DX009 (ip), vehicle: saline 101 % of control | dose: 50.0 mg/kg/injection, schedule: Q04DX003 (ip), vehicle: saline 93 % of control | [7] 96 % of control | [8] 98 % of control

O=C(O)C1CCCCN1O (stereo not given)
inactive: [7] 102 % of control | [8] 104 % of control | dose: 400.0 mg/kg/injection, schedule: Q01DX001 (ip), vehicle: saline 104 % of control

Cc1nc2nc(C(F)(F)F)[nH]c2nc1C
inactive: [2] 98 % of control | [3] 96 % of control and 120 % of control | [9] 101 % of control and 102 % of control

COc1c(NC(=O)Nc2ccccc2Cl)cccc1[N+](=O)[O-]
inactive: dose: 400.0 mg/kg/injection, schedule: Q04DX002 (ip), vehicle: saline with Tween-80 90 % of control

COC1COC(OC)C(OS(C)(=O)=O)C1OC (stereo not given)
inactive: dose: 100.0 mg/kg/injection, schedule: Q01DX001 (ip), vehicle: carboxymethylcellulose (CMC) 106 % of control | dose: 200.0 mg/kg/injection, schedule: Q01DX001 (ip), vehicle: carboxymethylcellulose (CMC) 98 % of control | dose: 400.0 mg/kg/injection, schedule: Q01DX001 (ip), vehicle: carboxymethylcellulose (CMC) 101 % of control

CCOC(=O)C(Cc1ccccc1Cl)(Cc1ccccc1Cl)c1ccccc1
inactive: [3] 92 % of control | [9] 90 % of control | dose: 400.0 mg/kg/injection, schedule: Q01DX009 (ip), vehicle: saline with Tween-80 90 % of control

CCNC(C)(C)C(SS)c1ccc(Br)cc1 (stereo not given)
inactive: dose: 6.25 mg/kg/injection, schedule: Q01DX009 (ip), vehicle: water 98 % of control | dose: 12.5 mg/kg/injection, schedule: Q01DX009 (ip), vehicle: water 96 % of control | dose: 25.0 mg/kg/injection, schedule: Q01DX009 (ip), vehicle: water 94 % of control | dose: 50.0 mg/kg/injection, schedule: Q01DX009 (ip), vehicle: water 94 % of control and 91 % of control | dose: 100.0 mg/kg/injection, schedule: Q01DX009 (ip), vehicle: water 101 % of control | dose: 200.0 mg/kg/injection, schedule: Q01DX009 (ip), vehicle: water 93 % of control | dose: 400.0 mg/kg/injection, schedule: Q01DX009 (ip), vehicle: water 93 % of control

CNC1(C(N)=O)CCN(Cc2ccccc2)CC1
inactive: [2] 99 % of control | [3] 94 % of control | [4] 95 % of control | [9] 90 % of control | dose: 200.0 mg/kg/injection, schedule: Q04DX003 (ip), vehicle: saline with Tween-80 101 % of control

c1ccc2sc(SCCSc3nc4ccccc4s3)nc2c1
inactive: dose: 6.25 mg/kg/injection, schedule: Q01DX009 (ip), vehicle: saline with Tween-80 93 % of control | dose: 6.25 mg/kg/injection, schedule: Q04DX002 (ip), vehicle: saline with Tween-80 100 % of control | dose: 12.5 mg/kg/injection, schedule: Q01DX009 (ip), vehicle: saline with Tween-80 97 % of control | dose: 12.5 mg/kg/injection, schedule: Q04DX002 (ip), vehicle: saline with Tween-80 89 % of control | [1] 95 % of control | dose: 25.0 mg/kg/injection, schedule: Q04DX002 (ip), vehicle: saline with Tween-80 89 % of control

CCN(CC)C1CCC(NC(C)=O)CC1 (stereo not given)
inactive: dose: 100.0 mg/kg/injection, schedule: Q01DX009 (ip), vehicle: saline 108 % of control | [10] 105 % of control and 97 % of control | dose: 200.0 mg/kg/injection, schedule: Q01DX009 (ip), vehicle: saline 107 % of control | [11] 96 % of control and 99 % of control | dose: 400.0 mg/kg/injection, schedule: Q01DX009 (ip), vehicle: saline 86 % of control | [12] 101 % of control

CCN(CC)C(=O)O/N=C(/C)c1ccccc1
inactive: dose: 100.0 mg/kg/injection, schedule: Q01DX001 (ip), vehicle: other 96 % of control | dose: 200.0 mg/kg/injection, schedule: Q01DX001 (ip), vehicle: other 91 % of control

CCOC(=O)NC(=O)C1C2CC3OC(=O)C1C3C2 (stereo not given)
inactive: [10] 102 % of control | [11] 102 % of control | [12] 98 % of control

CCCCCCCCC(=O)N1CCCCC1C (stereo not given)
inactive: dose: 100.0 mg/kg/injection, schedule: Q04DX002 (ip), vehicle: Klucel (hydroxypropylcellulose) (HPC) 96 % of control | dose: 200.0 mg/kg/injection, schedule: Q04DX002 (ip), vehicle: Klucel (hydroxypropylcellulose) (HPC) 100 % of control | dose: 400.0 mg/kg/injection, schedule: Q04DX002 (ip), vehicle: Klucel (hydroxypropylcellulose) (HPC) 88 % of control

Cc1ccc2nc(-c3ccc(N)cc3)sc2c1
inactive: [3] 96 % of control | [9] 91 % of control

Cc1ccc(NC(=S)NC(Cc2ccccc2)c2ccccc2)cc1 (stereo not given)
inactive: dose: 100.0 mg/kg/injection, schedule: Q01DX009 (ip), vehicle: Klucel (hydroxypropylcellulose) (HPC) 97 % of control | dose: 200.0 mg/kg/injection, schedule: Q01DX009 (ip), vehicle: Klucel (hydroxypropylcellulose) (HPC) 94 % of control | [5] 93 % of control | dose: 400.0 mg/kg/injection, schedule: Q01DX009 (ip), vehicle: Klucel (hydroxypropylcellulose) (HPC) 96 % of control | [6] 102 % of control
